For data set [1], the target named is T1, ALK5 (Homo sapiens, UniProt P36897).
T1 sequence (P36897 34-503): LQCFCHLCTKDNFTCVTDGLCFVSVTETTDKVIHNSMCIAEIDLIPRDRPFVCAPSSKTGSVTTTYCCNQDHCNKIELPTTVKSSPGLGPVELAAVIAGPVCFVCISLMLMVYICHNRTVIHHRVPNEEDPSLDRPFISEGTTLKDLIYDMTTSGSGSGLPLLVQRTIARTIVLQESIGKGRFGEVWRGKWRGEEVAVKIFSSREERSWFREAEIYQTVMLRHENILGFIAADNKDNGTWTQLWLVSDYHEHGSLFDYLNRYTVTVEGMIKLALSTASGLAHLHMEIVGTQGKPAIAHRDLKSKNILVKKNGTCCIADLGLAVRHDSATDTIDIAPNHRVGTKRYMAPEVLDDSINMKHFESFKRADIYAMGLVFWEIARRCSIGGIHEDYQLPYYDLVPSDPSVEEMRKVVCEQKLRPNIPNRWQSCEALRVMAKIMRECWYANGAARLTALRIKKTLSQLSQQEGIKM

The next data set concerns the target p38α (Homo sapiens, UniProt Q16539). The data set is described as follows: p38α kinase assay (33PanQinase, ATF2 as substrate). Type of data set: biochemical. As to conditions: for IC50: ATF2 substrate, mean of duplicates.
Data set [2] has as its system TGF-β1-induced luciferase reporter activity, HaCaT (3TP-luc) stable cells. The data set is described as follows: Cell-based p3TP-luciferase reporter assay. As to conditions: for p3TP-luciferase activity (% control): 0.1 μM inhibitor, TGF-β1 2 ng/mL, 24 h, mean ± SD of three independent experiments; for IC50: Homo sapiens, HaCaT, read-out: IC50 for p3TP-luciferase. The procedure:
To establish HaCaT (3TP-luc) stable cells, cells were seeded on six-well plates. Cells were allowed to adhere overnight and then transfected with the p3TP-luc (neo) expression plasmid using PEI reagent (Sigma Aldrich). Transfected cells were cultured for four weeks in the presence of G418 (500 µg/mL). Several single clones were isolated and measured luciferase activity. The clone showing response to TGF-β1 treatment was used for reporter assay. HaCaT (3TP-luc) stable cells were seeded at 2.5 × 10^4 cells/well in 96-well plate and were allowed to adhere overnight. Cells were concomitantly treated with TGF-β1 (2 ng/mL) and indicated concentrations of ALK5 inhibitors in 0.2% FBS medium and incubated for 24 h at 37 °C in 5% CO2. Cell lysates were prepared using Luciferase Assay System (Promega) according to the manufacturer’s instruction, and luminescence was measured by a luminometer, Micro Lumat Plus (Berthold, Germany).

For the next data set, the system named is Caco-2 cells. The data set is described as follows: Caco-2 cell permeability assay. As to conditions: 100 µM, AP to BL, 2 h; mean ± SD of quadruplicates. The format is in vitro ADME. As to the method: Caco-2 cells were seeded in Transwell® polycarbonate filter at a density of 8 × 10^4 cells/filter and cultured for 21 days. Culture medium was removed from both apical (AP) and basolateral (BL) chambers of transwell, and the wells were rinsed three times with PBS. AP buffer (HBSS, pH 6.5) containing 10 mM MES and BL buffer (HBSS, pH 7.4) containing 10 mM HEPES were loaded in AP (500 µL) and BL (1500 µL) chambers, respectively, followed by incubation for 30 min at 37 °C. Then, test compound (100 µM) was added to the AP side and incubated for 2 h at 37 °C. After the incubation, BL buffer was collected and analysed using an UV spectrophotometer at a maximum wavelength (wavelength 225–357 nm).
To estimate oral absorption of target compounds, their permeability in a Caco-2 monolayer was evaluated at a concentration of 100 µM (Table 1).

The target in data set [3] is T2, purified human ALK5 kinase domain (Homo sapiens, UniProt P36897).
T2 construct: using the purified human ALK5 kinase domain produced in Sf9 insect cells; host or cells: Sf9 insect cells
T2 sequence (P36897 205-495 limits assumed): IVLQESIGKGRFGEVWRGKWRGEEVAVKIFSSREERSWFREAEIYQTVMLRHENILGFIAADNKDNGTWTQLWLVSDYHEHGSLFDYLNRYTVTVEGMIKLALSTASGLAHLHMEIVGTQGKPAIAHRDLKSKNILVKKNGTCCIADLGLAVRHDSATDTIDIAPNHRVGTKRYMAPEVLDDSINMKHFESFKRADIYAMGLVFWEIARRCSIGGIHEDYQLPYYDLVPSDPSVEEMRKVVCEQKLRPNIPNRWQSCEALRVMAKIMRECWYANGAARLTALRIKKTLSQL
The data set is described as follows: ALK5 kinase assay (33PanQinase, casein as substrate). As to conditions: for IC50: casein substrate, 1 μM ATP, singlicate (11e: mean of triplicates). The format is biochemical.
Description: To evaluate whether these potential inhibitors 7a–c, 11a–h, and 16a–h could inhibit ALK5, a kinase assay was performed using the purified human ALK5 kinase domain produced in Sf9 insect cells and casein as a substrate (Table 1).

The test system of data set [4] is panel of 28 protein kinases. As to conditions: panel of 28 protein kinases (19 serine/threonine, 9 tyrosine kinases).
Excerpt: Because ALK5 is a serine/threonine kinase, we chose 19 serine/threonine kinases including ALK5 and an ALK family kinase, ACV-R1 (ALK5, ACV-R1, Aurora-A, ARK5, B-Raf, CK2α1, COT, DAPK1, IRAK4, JNK3, MAPKAPK5, MST4, NEK2, NLK, PAK1, PIM1, PRK1, S6K, SGK1) and 9 tyrosine kinases (ABL1, CSK, FGF-R1, FLT3, IGF1-R, PDGFR-α, SRC, VEGF-R1, ZAP70).
The conditions of data set [5]: rats; cited from earlier work.
The subject of data set [6] is ALK5. As to conditions: cited from earlier work.
Data set [7] relates to ALK5. The conditions noted are these: cited from earlier work. The source holds these as a separate data set.

The structures appear in SMILES notation. Values joined by “and” are separate entries in the source; they are usually repeats but may differ in a detail not shown here. Identical values can stand only once.

p38α, sequence (Q16539 whole entry): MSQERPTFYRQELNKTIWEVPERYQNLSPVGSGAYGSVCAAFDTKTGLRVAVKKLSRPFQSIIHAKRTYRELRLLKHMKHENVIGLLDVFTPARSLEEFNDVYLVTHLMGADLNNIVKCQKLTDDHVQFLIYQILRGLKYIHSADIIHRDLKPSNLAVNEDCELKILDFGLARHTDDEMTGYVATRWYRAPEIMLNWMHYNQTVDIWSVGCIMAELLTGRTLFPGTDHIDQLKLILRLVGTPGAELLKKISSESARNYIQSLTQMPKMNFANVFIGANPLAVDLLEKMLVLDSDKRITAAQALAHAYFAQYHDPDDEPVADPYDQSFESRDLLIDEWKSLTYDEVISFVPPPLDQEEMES

`Cc1cccc(-c2[nH]c(Cc3cccc(C(N)=O)c3)nc2-c2ccc3nccnc3c2)n1` [Compound 11e, 3-((5-(6-Methylpyridin-2-yl)-4-(quinoxalin-6-yl)-1H-imidazol-2-yl)methyl)benzamide]: at ALK5 [1] (ALK5 kinase assay), the “fold higher potency compared to galunisertib” value is reported as 6.6 fold. The IC50 on ALK5 [1] (read-out: IC50 for ALK5, GSK3 (14–27) substrate, 1 μM ATP, mean of duplicates) was found to be 13 nM. On p38α, the “Selectivity index (IC50 for p38α/IC50 for ALK5)” value is on record as 22, the “fold less selective against p38α than vactosertib” value stood at 6.2 fold, the “fold more selective against p38α than galunisertib” value came out at 5.5 fold and the IC50 stood at 288 nM. The “% inhibition in luciferase reporter assay” value in data set [2] (0.1 µM inhibitor) worked out at 92 % inhibition. In addition, in [2], the “p3TP-luciferase activity (% control)” value was 8 ± 5.8 % control and the IC50 stood at 19.6 nM. For the same compound, the “Caco-2 permeability (%)” value in the data set on Caco-2 cells is 56% and 56 ± 26.8%. In addition, the midpoint of inhibition in [3], the IC50, lay at 36 nM. Also, the “Selectivity indices against all the kinases tested” value in data set [4] is listed as above 100.
In the case of `CC(C)c1cccc(-c2[nH]c(CCc3cccc(C(N)=O)c3)nc2-c2ccc3nccnc3c2)n1` [Compound 16g, 3-(2-(5-(6-Isopropylpyridin-2-yl)-4-(quinoxalin-6-yl)-1H-imidazol-2-yl)ethyl)benzamide], the “p3TP-luciferase activity (% control)” value in data set [2] turned out to be 48 ± 41.8 % control. The “Caco-2 permeability (%)” value with Caco-2 cells was determined as 0%. The same compound displayed an IC50 in data set [3] of 593 nM. For the same compound, the “fold more inhibiting than the respective methylene linker analogue” value in data set [3] (vs 11a, 11b, 11c, 11g respectively) is on record as 2.1 fold. Further, the “fold less potent than the corresponding 6-methylpyridyl analogue” value in data set [3] (vs 11a, 11e, 16a, 16e respectively, kinase assay) is listed as 13–35 fold.
`CCCCc1cccc(-c2[nH]c(CCc3cccc(C(N)=O)c3)nc2-c2ccc3nccnc3c2)n1` [Compound 16h, 3-(2-(5-(6-n-Butylpyridin-2-yl)-4-(quinoxalin-6-yl)-1H-imidazol-2-yl)ethyl)benzamide]: the “p3TP-luciferase activity (% control)” value in [2] came out at 92 ± 10.4 % control. Also, the “Caco-2 permeability (%)” value in the data set on Caco-2 cells was found to be 0%. It took 2880 nM to reach half-maximal inhibition in data set [3] (IC50).
As to `Cc1cccc(-c2nn3c(c2-c2ccnc4ccc(C(N)=O)cc24)CCC3)n1` [Galunisertib (1), reference compound], the IC50 against p38α was 320 nM; in [2] it was above 100 nM.
Take `Cc1cccc(-c2[nH]c(CNc3ccccc3F)nc2-c2ccc3ncnn3c2)n1` [Vactosertib (2), N-((4-([1,2,4]triazolo[1,5-a]pyridin-6-yl)-5-(6-methylpyridin-2-yl)-1H-imidazol-2-yl)methyl)-2-fluoroaniline]: the oral bioavailability entry in data set [5] was “moderate”. The “ALK5 inhibitory activity in a cell-based luciferase reporter assay” value with ALK5 [6] is reported as “subnanomolar”. In addition, the “ALK5 inhibitory activity in a kinase assay” value in the data set on ALK5 [7] is “subnanomolar”.

(Values after paper PMC7144182, “Synthesis, biological evaluation and molecular modelling of 2,4-disubstituted-5-(6-alkylpyridin-2-yl)-1H-imidazoles as ALK5 inhibitors” (Journal of Enzyme Inhibition and Medicinal Chemistry, 2020).)
